# Source: US20090005711A1, “Systems and methods for opening of the blood-brain barrier of a subject using ultrasound” (priority 2005, published 2009)
# Assays:
# [1] = tested on: left hippocampus (BBB opening and closure); assay: 9.4 T MRI of gadolinium deposition after FUS with SonoVue in APP/PS1 and NTg mice (Example C); assay type: in vivo, mouse
# From the text: In an example, transgenic mice expressing mutant human APPK670N,M671L protein (line Tg2576) and a line of mice expressing human mutant PS1M146V protein (line 8.9) were crossed to generate offspring: doubly transgenic APP/PS1 animals and wild-type NTg littermates A total of six mice (age: 12 months, mass: 26-37 g) were used: transgenic APP/PS1 (n=3) and NTg (m=3) mice.
# The experimental timeline is depicted in FIG. 17. Each mouse 180 with intact skin and skull 182 was anesthetized using 1.25-2.50% isoflurane (SurgiVet, Smiths Medical PM, Inc., Wisconsin, USA) and placed prone with its head immobilized by a stereotaxic apparatus 184 (David Kopf Instruments, Tujunga, Calif.) that included a mouse head holder, ear bars, and a gas anesthesia mask (FIG. 16). […] A degassed water-filled container 186 sealed at the bottom with a thin, acoustically and optically transparent, Saran™ Wrap (Saran, SC Johnson, Racine, Wis., USA) was placed on top of the mouse head (FIG. 16). Ultrasound coupling gel 188 was also used to eliminate any remaining impedance mismatch.
# FIG. 18(A) illustrates the frontal bone 200, sagittal suture 202, lambdoid suture 204, left parietal bone 206, right parietal bone 208, and intraparietal bone 210. […] The beam axis of the transducer was aligned 2.25 mm away from the sagittal suture 202 and 2 mm away from the lambdoid suture 204 (FIG. 18(A)). The focal point was placed 3 mm beneath the top of the parietal bone of the skull (dotted line in FIG. 18(A)). In this placement, the focus of the FUS beam overlapped with the left hippocampus 212 and the left posterior cerebral artery (PCA) (FIG. 18(A)-(B)). […] After the BBB opening, gadolinium was injected and monitored with MRI (FIG. 18(C). The horizontal slices shown in FIGS. 18(B)-(C) were obtained approximately 3 mm beneath the top of the skull. […]
# A vertical bore 9.4-Tesla MR scanner (Bruker Medical, Boston, Mass., USA) was used to acquire images of mouse brains in two separate sessions. […] 1-2% isoflurane was administered while the respiration rate of the mouse was monitored throughout the entire MRI procedure. […]
# [2] = tested on: left hippocampus of the mouse brain (BBB opening)
# Description: Brown CB57-b16 type mice (Charles River Laboratories, Wilmington, Mass., USA; mass: 23 to 28 g) were used in sonication procedures. The mice were anesthetized with a mixture of ketamine (Fort Dodge Animal Health, Fort Dodge, Iowa, USA; concentration: 75 mg per kg of body mass) and xylazine (Ben Venue Laboratories, Bedford, Ohio, USA; concentration: 3.75 mg per kg of body mass). Before sonication, the hair on the top of the mouse heads was removed using an electric trimmer and a depilatory cream. After sonication, but before MRI scanning, the mice were switched to administration of isoflurane to simplify the long anesthesia procedure necessary for MRI scanning. During all imaging procedures, the vital signs of the mice were continuously monitored.
# Ultrasound gel was used further to reduce any remaining impedance mismatches between the thin plastic layer 138 and the mouse skin.
# The focus of the transducer 102 was positioned inside the mouse brain using a grid positioning method, as discussed above. In this method, the sutures of the mouse skull seen through the skin were used as anatomic landmarks for targeting purposes. The location of the hippocampi were assumed relative to the sutures based on the mouse brain and known skull anatomy, as illustrated in FIG. 4. […] In CB57-b16 type mice, these were the sutures that could be clearly seen through the skin.
# Ultrasound contrast medium was administered for transport across the BBB. A bolus of 10 μL (approximately 0.4 mL/kg) of ultrasound contrast agent (Optison) that contained microbubbles (mean diameter: 3.0 to 4.5 μm: concentration: 5.0 to 8.0×108 bubbles per mL) was injected into the right femoral vein of the mouse approximately 15 minutes before sonication (Table 1). Pulsed-wave FUS (burst rate: 10 Hz; burst duration: 20 ms; duty cycle: 20%; acoustic pressures at the focus: 2.0, 2.5 and 2.7 MPa) was then applied in a series of five shots lasting 30 seconds each with a 30 second delay between each shot. The FUS sonication procedure was performed once in each mouse brain. […]
structure (smiles),measurement,setting,value
[Gd] [gadolinium],"Contrast enhancement on MR images, day 1","[1]; 0.64 MPa, 25 μl SonoVue, scans 90 min post-sonication, 90 min post-gadolinium injection (0.75 ml IP)",the entire left hippocampus and some of its surrounding regions were contrast-enhanced
same,"Area and degree of contrast enhancement, day 2","[1]; 0.64 MPa, 25 μl SonoVue, scans 22 hours post-sonication, second gadolinium injection, compared with day 1",significantly reduced
same,Residual gadolinium in pre-gadolinium T1 and T2-weighted images,[1]; before the day 2 scan (22 hours post-sonication),no residual gadolinium
same,Contrast enhancement / permeation on T1 MRI scans,[2],eventually encompassing the entire left hippocampus
same,Contrast enhancement / BBB opening on T1 MRI scans,"[2]; in vivo, ip",highly localized opening of the BBB near the PCA
same,Contrast enhancement on T1 MRI scans,"[2]; in vivo, ip",no contrast enhancement was observed
